Values quoted from earlier work, collected in US9675603B2, “Solid pharmaceutical compositions of ppary modulator” (InteKrin Therapeutics, Inc., priority 2010, dated 2017).

Solubility (in aqueous solvents and in most organic solvents): sparingly soluble
SMILES: O=S(=O)(Nc1cc(Cl)c(Oc2cnc3ccccc3c2)c(Cl)c1)c1ccc(Cl)cc1Cl.O=S(=O)(O)c1ccccc1 [besylate salt of compound 101, 2,4-Dichloro-N-[3,5-dichloro-4-(quinolin-3-yloxy)-phenyl]-benzenesulfonamide benzenesulfonate salt]
Stability and hygroscopic properties (compared to other salts of compound 101, U.S. Pat. No. 7,223,761 B2): superior stability and hygroscopic properties
